Measurements: PubChem BioAssay (NCI)
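Briefly, cells in 96-well plates were exposed to five compound concentrations for 48 h, and endpoints were estimated by linear interpolation. GI50 = concentration required for 50% inhibition of growth. TGI is the concentration that stops growth completely.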

Columns and labels:
Experiment in all cases: NCI anticancer screen, dose series, 48 h
[1] = system: BT-549 breast
[2] = system: HCT-15 colon
[3] = system: HT29 colon
[4] = system: MDA-N
[5] = system: NCI-H460 lung
[6] = system: PC-3 prostate
[7] = system: SK-OV-3 ovarian
[8] = system: SNB-75 CNS
[9] = system: UACC-257 melanoma
[10] = system: SF-295 CNS

| Structure (SMILES) | TGI [1] | TGI [2] | TGI [3] | TGI [4] | TGI [5] | TGI [6] | TGI [7] | TGI [8] | TGI [9] | TGI [10] | GI50 [1] | GI50 [2] | GI50 [3] | GI50 [5] | GI50 [6] | GI50 [10] | GI50 [7] | GI50 [8] | GI50 [9] |
| --- | --- | --- | --- | --- | --- | --- | --- | --- | --- | --- | --- | --- | --- | --- | --- | --- | --- | --- | --- |
| CCCNCC(O)CNc1ccc(NCC(O)CNCCC)c2c1C(=O)c1ccccc1C2=O (stereo not given) | 6.99 µM | 75 µM | 7.69 µM | 11.7 µM | 8.48 µM | 4.7 µM | 7.78 µM | 8.83 µM | 17.6 µM | – | – | – | – | – | – | – | – | – | – |
| CC(Cc1cccc2c1Nc1ccccc1S2)N(C)CCO (stereo not given) | > 100 µM | > 100 µM | > 100 µM | > 100 µM | > 100 µM | > 100 µM | > 100 µM | – | > 100 µM | > 100 µM | – | – | – | – | – | – | – | – | – |
| Nc1nc(N)c2ncn(-c3ccccc3)c2n1 | > 100 µM | > 100 µM | > 100 µM | > 100 µM | – | > 100 µM | > 100 µM | – | > 100 µM | > 100 µM | – | – | – | – | – | – | – | – | – |
| O=C(Cc1ccccc1)N/N=C(/c1nc2ccc([N+](=O)[O-])cc2[nH]c1=O)C(O)c1ccc(C(O)/C(=N/NC(=O)Cc2ccccc2)c2nc3ccc([N+](=O)[O-])cc3[nH]c2=O)cc1 (stereo not given) | – | > 100 µM | > 100 µM | – | – | – | > 100 µM | > 100 µM | > 100 µM | > 100 µM | – | – | – | – | – | – | – | – | – |
| CCCCCCCc1cscc1-c1cscc1Br | > 100 µM | > 100 µM | – | > 100 µM | > 100 µM | > 100 µM | > 100 µM | 87 µM | > 100 µM | 79.8 µM | – | – | – | – | – | – | – | – | – |
| CO[C@H]1O[C@@H]2OC3(C)CCC4[C@H](C)CCC([C@H]1C)[C@]42OO3 (stereo not given in full) | – | > 100 µM | > 100 µM | > 100 µM | > 100 µM | > 100 µM | > 100 µM | > 100 µM | > 100 µM | > 100 µM | – | – | – | – | – | – | – | – | – |
| C/C(=N\O)C1CC2C=C(C#N)C1N(Cc1ccccc1)C2 (stereo not given) | – | > 100 µM | > 100 µM | > 100 µM | > 100 µM | > 100 µM | > 100 µM | > 100 µM | > 100 µM | > 100 µM | – | – | – | – | – | – | – | – | – |
| CCCCCC#COC1CC(C)CC[C@@H]1C(C)C (stereo not given in full) | – | > 100 µM | > 100 µM | – | 55.4 µM | – | > 100 µM | > 100 µM | > 100 µM | > 100 µM | – | – | – | – | – | – | – | – | – |
| C/C(=C\CNc1ncnc2c1ncn2CCC(=O)OC(C)(C)C)CO | – | – | > 100 µM | > 100 µM | > 100 µM | > 100 µM | > 100 µM | > 100 µM | > 100 µM | > 100 µM | – | – | – | – | – | – | – | – | – |
| CC(=O)O[C@H]1CC[C@@]2(C)C(=CC[C@@H]3[C@@H]2CC[C@](C)(c2nnc(C)o2)[C@H]3CC#N)C1 | > 100 µM | > 100 µM | > 100 µM | > 100 µM | – | > 100 µM | > 100 µM | > 100 µM | > 100 µM | > 100 µM | – | – | – | – | – | – | – | – | – |
| CC(C)COP(C)(=O)C(N)(C(F)(F)F)C(F)(F)F (stereo not given) | – | > 100 µM | > 100 µM | > 100 µM | – | > 100 µM | > 100 µM | > 100 µM | > 100 µM | > 100 µM | – | – | – | – | – | – | – | – | – |
| N#Cc1ccc(C(C2C(=O)NC(=O)NC2=O)C2C(=O)NC(=O)NC2=O)cc1 | – | > 100 µM | > 100 µM | – | > 100 µM | – | > 100 µM | – | > 100 µM | > 100 µM | – | – | – | – | – | – | – | – | – |
| CN(C)CCN(C)C(=O)C1CCCN1C(=O)OCc1ccccc1 (stereo not given) | – | > 100 µM | > 100 µM | – | > 100 µM | – | > 100 µM | > 100 µM | > 100 µM | > 100 µM | – | – | – | – | – | – | – | – | – |
| CCCCCCCCCC/C=C/C=O | – | > 100 µM | > 100 µM | – | > 100 µM | – | > 100 µM | > 100 µM | > 100 µM | > 100 µM | – | – | – | – | – | – | – | – | – |
| CCCCOC(=O)NC(Nc1ccc(S(=O)(=O)Nc2ncccn2)cc1)(C(F)(F)F)C(F)(F)F | – | > 100 µM | > 100 µM | > 100 µM | > 100 µM | > 100 µM | > 100 µM | – | – | > 100 µM | – | – | – | – | – | – | – | – | – |
| COc1cc(/C=C/C(=O)c2ccc(F)cc2)ccc1OCCCCCOc1cc2c(cc1OC)C(=O)N1CCCC1C=N2 (stereo not given) | 0.0974 µM | 1.41 µM | 1.48 µM | – | 0.0179 µM | 0.215 µM | 6.06 µM | 0.187 µM | 1.17 µM | < 0.0108 µM | 0.0214 µM | 0.0588 µM | < 0.016 µM | < 0.01 µM | 0.0208 µM | < 0.01 µM | 0.212 µM | 0.034 µM | 0.238 µM |
| O=C(Oc1c(Br)cc(Br)cc1C(=O)Oc1ccccc1)C(=O)Oc1c(Br)cc(Br)cc1C(=O)Oc1ccccc1 | 52 µM | 75.3 µM | > 100 µM | 81.3 µM | > 100 µM | 69.6 µM | > 100 µM | – | > 100 µM | > 100 µM | – | – | – | – | – | – | – | – | – |
| CCOC(=O)/C(=C/c1ccccc1Br)P(=O)(OCC)OCC | – | 5.87 µM | 13.9 µM | – | 10.7 µM | – | – | 6.02 µM | – | 12.2 µM | – | – | – | – | – | – | – | – | – |
| Fc1cccc(C2SCc3nc4cc5ccccc5cc4n32)c1 (stereo not given) | > 100 µM | > 100 µM | > 100 µM | > 100 µM | – | > 100 µM | > 100 µM | > 100 µM | > 100 µM | > 100 µM | – | – | – | – | – | – | – | – | – |
| C=CC(=O)NCNC(=O)C=C | – | > 100 µM | > 100 µM | – | > 100 µM | – | > 100 µM | > 100 µM | > 100 µM | > 100 µM | – | – | – | – | – | – | – | – | – |
| Oc1c(Cl)c(Cl)c(O)c(CCNc2nccs2)c1Cl | – | 31 µM | 51.8 µM | – | 41.1 µM | 45.1 µM | 30.3 µM | 42.3 µM | 58.7 µM | 41.5 µM | – | – | – | – | – | – | – | – | – |
| CC(=O)Oc1ccc(Nn2c3ccccc3c3ccccc32)c(C)c1 | – | 82.4 µM | – | – | > 100 µM | – | > 100 µM | – | > 100 µM | 73.7 µM | – | – | – | – | – | – | – | – | – |
| CCOC(=O)Nc1n[nH]nc1Cl | > 100 µM | > 100 µM | > 100 µM | > 100 µM | > 100 µM | > 100 µM | > 100 µM | > 100 µM | > 100 µM | – | – | – | – | – | – | – | – | – | – |
| O=C1C=CC(=O)c2cc(Sc3ccccc3)c(=O)c(Sc3ccccc3)cc21 | – | > 100 µM | > 100 µM | – | > 100 µM | – | > 100 µM | > 100 µM | > 100 µM | > 100 µM | – | – | – | – | – | – | – | – | – |
